Reference: patent publication US20080175892A1, “Nanostructure-Drug Conjugates” (priority 2006, published 2008)

Test: Aggregation in aqueous solution by particle-size analyzer (light scattering)
Assay type: physicochemical
Conditions: aqueous solution (10% DMSO), 4 and 0.04 μg/mL solutions
From the text: Thus, the aggregation properties of 6 and paclitaxel were studied as a function of concentration in aqueous solution (10% DMSO) using a Brookhaven 90Plus submicrometer particle-size analyzer.

## CC(=O)O[C@H]1C(=O)[C@@]2(C)[C@H]([C@H](OC(=O)c3ccccc3)[C@]3(O)C[C@H](OC(=O)[C@H](O)[C@@H](NC(=O)c4ccccc4)c4ccccc4)C(C)=C1C3(C)C)[C@]1(OC(C)=O)CO[C@@H]1C[C@@H]2O [paclitaxel, Paclitaxel]
  light scattering (aggregation): did not show any scattering
